IC50 data for nine compounds are collected here from patent US20240148821A1, “PHARMACEUTICAL USE OF CYCLIC PEPTIDE COMPOUND” (CHUGAI SEIYAKU KABUSHIKI KAISHA, priority 2021, published 2024).

Bridge positions count the residues as written; N and C are the ends. Square brackets hold non-standard residues; d marks the D form. Peptide text beside a SMILES is read from it. * marks the point of attachment. hPhe(3-Cl-4-CF3) = N[C@@H](CCc1ccc(C(F)(F)F)c(Cl)c1)C(=O)O; hPhe(4-CF3) = N[C@@H](CCc1ccc(C(F)(F)F)cc1)C(=O)O; 3Oxa8azabicyclo(3.2.1)octane = C1CC2COCC1N2*; NMePhe(4-Cl) = CN[C@@H](Cc1ccc(Cl)cc1)C(=O)O; NMePhe(4-Me) = CN[C@@H](Cc1ccc(C)cc1)C(=O)O; NMeGly(cPent) = CN[C@H](C(=O)O)C1CCCC1; Pro(4,4-F2) = O=C(O)[C@@H]1CC(F)(F)CN1; NMeCha = CN[C@@H](CC1CCCCC1)C(=O)O; NMehLeu = CN[C@@H](CCC(C)C)C(=O)O; Ala(cPr) = N[C@@H](CC1CC1)C(=O)O; NMeChg = CN[C@H](C(=O)O)C1CCCCC1; NMeT = CN[C@H](C(=O)O)[C@@H](C)O; NMeD = CN[C@@H](CC(=O)O)C(=O)O; NMeL = CN[C@@H](CC(C)C)C(=O)O; NMeV = CN[C@H](C(=O)O)C(C)C; Trifluoroethyl = FC(F)(F)C*; d(β3hA) = C[C@@H](N)CC(=O)O; NMeS = CN[C@@H](CO)C(=O)O; NMeA = CN[C@@H](C)C(=O)O; Piperidide = C1CCN(*)CC1; Ac5c = NC1(C(=O)O)CCCC1; Aze = O=C(O)[C@@H]1CCN1; Ac3c = NC1(C(=O)O)CC1; Aib = CC(C)(N)C(=O)O; Sar = CNCC(=O)O; Propyl = CCC*

The experiment deals with Human pancreatic cancer cell line AsPC-1 (G12D mutation Kras). The experiment is described as follows: AsPC-1 cell growth inhibition (AsPC-1 CGI). It counts as cell-based. The settings on record: read-out: AsPC-1 cell growth inhibition, 50% growth inhibitory concentration (IC50 value); 96 hours, CellTiter-Glo, values classified in ranges. For orientation: Cellular ATP, detected with luciferase, serves as a proxy for viable cell number.
Protocol: Test compounds were serially dilated with dimethyl sulfoxide, and 200 nL was then dispensed to a U-bottom 96-well plate using Labcyte Echo. […] The cell suspension was dispensed to a. plate containing a test compound at 100 μL per well and incubated at 37° C. in a 5% carbon dioxide gas incubator. 96 hours later, 80 μL of CellTiter-Glo (Promega) was added to each well and fluorescence was measured.
As for `CC[C@H](C)[C@@H]1NC(=O)[C@H](CC(C)C)N(C)C(=O)C[C@@H](C(=O)N(C)C)N(C)C(=O)[C@H](C2CCCC2)N(C)C(=O)C2(CCCC2)NC(=O)[C@@H]2CCCN2C(=O)[C@H](CCc2ccc(C(F)(F)F)c(Cl)c2)NC(=O)CN(C)C(=O)[C@H](Cc2ccc(C)cc2)N(C)C(=O)[C@@H]2CCN2C(=O)[C@H](C)N(C)C1=O` [Compound 1756] ([NMeL]I[NMeA][Aze][NMePhe(4-Me)][Sar][hPhe(3-Cl-4-CF3)]P[Ac5c][NMeGly(cPent)][NMeD]-NMe2; lactam N-11), the IC50 was at most 20 nM.
For the compound `CC[C@H](C)[C@@H]1NC(=O)[C@H](CC(C)C)N(C)C(=O)C[C@@H](C(=O)N2C3CCC2COC3)N(C)C(=O)[C@H](C2CCCCC2)N(C)C(=O)C2(CCCC2)NC(=O)[C@@H]2CC(F)(F)CN2C(=O)[C@H](CCc2ccc(C(F)(F)F)c(Cl)c2)NC(=O)CN(C)C(=O)[C@H](CC2CCCCC2)N(C)C(=O)CN(C)C(=O)CN(C)C1=O` [Compound 1179] ([NMeL]I[Sar][Sar][NMeCha][Sar][hPhe(3-Cl-4-CF3)][Pro(4,4-F2)][Ac5c][NMeChg][NMeD]-{3Oxa8azabicyclo(3.2.1)octane}; lactam N-11), the IC50 is at most 20 nM.
The value for `CC[C@H](C)[C@@H]1NC(=O)[C@H](C)N(C)C(=O)C[C@@H](C(=O)N2CCCCC2)N(C)C(=O)[C@H](C(C)C)N(C)C(=O)C2(CCCC2)NC(=O)[C@@H]2CCCN2C(=O)[C@H](CCc2ccc(C(F)(F)F)c(Cl)c2)NC(=O)CN(C)C(=O)[C@H](CC2CCCCC2)N(C)C(=O)[C@@H]2CCN2C(=O)[C@H](CCC(C)C)N(C)C1=O` [Compound 1595] ([NMeA]I[NMehLeu][Aze][NMeCha][Sar][hPhe(3-Cl-4-CF3)]P[Ac5c][NMeV][NMeD]-Piperidide; lactam N-11) was above 500 nM.
In the case of `CC(C)C[C@H]1C(=O)N[C@@H](CC2CC2)C(=O)N(C)CC(=O)N(C)CC(=O)N(C)[C@@H](CC2CCCCC2)C(=O)N(C)CC(=O)N[C@@H](CCc2ccc(C(F)(F)F)c(Cl)c2)C(=O)N2CCC[C@H]2C(=O)NC2(CCCC2)C(=O)N(C)[C@@H](C(C)C)C(=O)N(C)[C@H](C(=O)N2CCCCC2)CC(=O)N1C` [Compound 421] ([NMeL][Ala(cPr)][Sar][Sar][NMeCha][Sar][hPhe(3-Cl-4-CF3)]P[Ac5c][NMeV][NMeD]-Piperidide; lactam N-11), the IC50 is above 500 nM.
`CCCOC[C@H]1C(=O)N(C)[C@H](C(=O)N2CCCCC2)CC(=O)N(C)[C@@H](CC(C)C)C(=O)N[C@@H]([C@@H](C)CC)C(=O)N(C)[C@@H](C)C(=O)N2CC[C@H]2C(=O)N(C)[C@@H](CC2CCCCC2)C(=O)N(C)CC(=O)N[C@@H](CCc2ccc(C(F)(F)F)c(Cl)c2)C(=O)N2CCC[C@H]2C(=O)NC2(CCCC2)C(=O)N1C` [Compound 1855] ([NMeL]I[NMeA][Aze][NMeCha][Sar][hPhe(3-Cl-4-CF3)]P[Ac5c][NMeS](Propyl)[NMeD]-Piperidide; lactam N-11): the IC50 was above 500 nM.
As for `CC(C)C[C@H]1C(=O)N[C@@H](COCC(F)(F)F)C(=O)N(C)CC(=O)N(C)CC(=O)N(C)[C@@H](CC2CCCCC2)C(=O)N(C)CC(=O)N[C@@H](CCc2ccc(C(F)(F)F)c(Cl)c2)C(=O)N2CCC[C@H]2C(=O)NC2(CCCC2)C(=O)N(C)[C@@H](C2CCCCC2)C(=O)N(C)[C@H](C(=O)N2CCCCC2)CC(=O)N1C` [Compound 894] ([NMeL]S(Trifluoroethyl)[Sar][Sar][NMeCha][Sar][hPhe(3-Cl-4-CF3)]P[Ac5c][NMeChg][NMeD]-Piperidide; lactam N-11), the IC50 is above 500 nM.
As for `CC[C@H](C)[C@@H]1NC(=O)[C@H](CC(C)C)N(C)C(=O)C[C@@H](C(=O)N2CCCCC2)N(C)C(=O)[C@H](C2CCCCC2)N(C)C(=O)C2(CCCC2)NC(=O)[C@@H]2CCCN2C(=O)[C@H](CCc2ccc(C(F)(F)F)c(Cl)c2)NC(=O)CN(C)C(=O)[C@H]([C@@H](C)O)N(C)C(=O)CN(C)C(=O)CN(C)C1=O` [Compound 427] ([NMeL]I[Sar][Sar][NMeT][Sar][hPhe(3-Cl-4-CF3)]P[Ac5c][NMeChg][NMeD]-Piperidide; lactam N-11), the IC50 was above 500 nM.
With `CC[C@H](C)[C@@H]1NC(=O)[C@H](C)N(C)C(=O)C[C@@H](C)NC(=O)[C@H](CC(C)C)N(C)C(=O)C(C)(C)NC(=O)[C@@H]2CCCN2C(=O)[C@H](CCc2ccc(C(F)(F)F)cc2)NC(=O)CN(C)C(=O)[C@H](Cc2ccc(Cl)cc2)N(C)C(=O)CN(C)C(=O)CN(C)C1=O` [Compound 664] (cyclo([Aib][NMeL][d(β3hA)][NMeA]I[Sar][Sar][NMePhe(4-Cl)][Sar][hPhe(4-CF3)]P)), the IC50 is above 500 nM.
The value for `CC[C@H](C)[C@@H]1NC(=O)[C@H](CC(C)C)N(C)C(=O)C[C@@H](C)NC(=O)[C@H](C(C)C)N(C)C(=O)C2(CC2)NC(=O)[C@@H]2CCCN2C(=O)[C@H](CCc2ccc(C(F)(F)F)c(Cl)c2)NC(=O)CN(C)C(=O)[C@H](CC2CCCCC2)N(C)C(=O)CN(C)C(=O)CN(C)C1=O` [Compound 1111] (cyclo([Ac3c][NMeV][d(β3hA)][NMeL]I[Sar][Sar][NMeCha][Sar][hPhe(3-Cl-4-CF3)]P)) was above 500 nM.
